Tests used:
surinam grass = experiment: Test B pre/postemergence surinam grass; format: in vivo, Brachiaria decumbens
Outline: (§1)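 Response is a visual 0-to-10 score relative to untreated plants, where 0 means no effect and 10 means complete control, taken twelve to sixteen days after application. Treatments went onto soil at planting and onto foliage of 1- to 4-leaf plants, using a surfactant-containing non-phytotoxic solvent.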

wild oat = experiment: Test B pre/postemergence wild oat; format: in vivo, Avena fatua
Outline: as §1

rape = experiment: Test B pre/postemergence rape; format: in vivo, Brassica napus
Outline: as §1

purple nutsedge = experiment: Test B pre/postemergence purple nutsedge; format: in vivo, Cyperus rotundus
Outline: as §1

giant foxtail = experiment: Test B pre/postemergence giant foxtail; format: in vivo, Setaria faberii
Outline: as §1

duck salad = experiment: Test B flood test duck salad; format: in vivo, Heteranthera limosa
Outline: (§2)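 Plants were grown to the 2-leaf stage before treatment with test chemical, then held in a greenhouse for twelve to sixteen days. Injury was visually rated against untreated controls on a 0–10 scale, where 0 is no effect and 10 is complete control.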

soybean = experiment: Test B pre/postemergence soybean; format: in vivo, Glycine max
Outline: as §1

bamyardgrass = experiment: Test B flood test barnyardgrass; format: in vivo, Echinochloa crus-galli
Outline: as §2

pigweed = experiment: Test B pre/postemergence pigweed; format: in vivo, Amaranthus retroflexus
Outline: as §1

wheat = experiment: Test B pre/postemergence wheat; format: in vivo, Triticum aestivum
Outline: as §1

velvetleaf = experiment: Test B pre/postemergence velvetleaf; format: in vivo, Abutilon theophrasti
Outline: as §1

blackgrass = experiment: Test B pre/postemergence blackgrass; format: in vivo, Alopecurus myosuroides
Outline: as §1

smallflower flatsedge = experiment: Test B flood test smallflower flatsedge; format: in vivo, Cyperus difformis
Outline: as §2

bedstraw = experiment: Test B pre/postemergence bedstraw; format: in vivo, Galium aparine
Outline: as §1

morningglory = experiment: Test B pre/postemergence morningglory; format: in vivo, Ipomoea hederacea
Outline: as §1

cocklebur = experiment: Test B pre/postemergence cocklebur; format: in vivo, Xanthium strumarium
Outline: as §1

[1] = Preemergence, Rate 62 g/ha, scale of 0 to 10 where 0 is no effect and 10 is complete control
[2] = Preemergence, Rate 250 g/ha, scale of 0 to 10 where 0 is no effect and 10 is complete control
[3] = Preemergence, Rate 500 g/ha, scale of 0 to 10 where 0 is no effect and 10 is complete control
[4] = Rate 62 g/ha, Postemergence, scale of 0 to 10 where 0 is no effect and 10 is complete control
[5] = Rate 125 g/ha, Postemergence, scale of 0 to 10 where 0 is no effect and 10 is complete control
[6] = Rate 125 g/ha, Preemergence, scale of 0 to 10 where 0 is no effect and 10 is complete control
[7] = Rate 250 g/ha, Postemergence, scale of 0 to 10 where 0 is no effect and 10 is complete control
[8] = Rate 500 g/ha, Postemergence, scale 0 to 10, 0 no effect, 10 complete control
[9] = Pre-emergence, Rate 1000 g/ha, scale 0 to 10 (0 no effect, 10 complete control)
[10] = Rate 62 g/ha, headed Pre-emergence (flood test species), scale 0 to 10 (0 no effect, 10 complete control)
[11] = Rate 125 g/ha, Pre-emergence, flood test species, scale 0 to 10 where 0 is no effect and 10 is complete control
[12] = Rate 250 g/ha, Pre-emergence, flood-test species, scale 0 to 10, 0 is no effect, 10 is complete control
[13] = Rate 500 g/ha, Pre-emergence, flood test species, scale 0 to 10 (0 no effect, 10 complete control)
[14] = Rate 2000 g/ha, Pre-emergence (as headed), scale 0 to 10

SMILES: CCN(C(=O)n1oc(=O)n(N(C)C)c1=O)C1CCCCC1 [Compound 274]
- B. signalgrass plant response rating (surinam grass; [1]): 0
- B. signalgrass plant response rating (surinam grass; [2]): 0
- Plant response rating, B. signalgrass (surinam grass; [3]): 0
- B. signalgrass plant response rating (surinam grass; [4]): 0
- B. signalgrass plant response rating (surinam grass; [5]): 0
- B. signalgrass plant response rating (surinam grass; [6]): 0
- Plant response rating, B. signalgrass (surinam grass; [7]): 0
- B. signalgrass plant response rating (surinam grass; [8]): 0
- Wild oats plant response rating (wild oat; [1]): 0
- Wild oats plant response rating (wild oat; [2]): 0
- Plant response rating, Wild oats (wild oat; [3]): 0
- Wild oats plant response rating (wild oat; [5]): 0
- Plant response rating, Wild oats (wild oat; [7]): 0
- Wild oats plant response rating (wild oat; [8]): 0
- Rape plant response rating (rape; [1]): 0
- Rape plant response rating (rape; [2]): 0
- Plant response rating, Rape (rape; [3]): 0
- Rape plant response rating (rape; [5]): 0
- Rape plant response rating (rape; [6]): 0
- Plant response rating, Rape (rape; [7]): 0
- Rape plant response rating (rape; [8]): 0
- Nutsedge plant response rating (purple nutsedge; [1]): 0
- Nutsedge plant response rating (purple nutsedge; [2]): 0
- Plant response rating, Nutsedge (purple nutsedge; [3]): 0
- Nutsedge plant response rating (purple nutsedge; [5]): 0
- Nutsedge plant response rating (purple nutsedge; [6]): 0
- Plant response rating, Nutsedge (purple nutsedge; [7]): 0
- Nutsedge plant response rating (purple nutsedge; [8]): 0
- Giant foxtail plant response rating (giant foxtail; [1]): 0
- Giant foxtail plant response rating (giant foxtail; [2]): 6
- Plant response rating, Giant foxtail (giant foxtail; [3]): 9
- Giant foxtail plant response rating (giant foxtail; [5]): 0
- Giant foxtail plant response rating (giant foxtail; [6]): 3
- Plant response rating, Giant foxtail (giant foxtail; [7]): 0
- Giant foxtail plant response rating (giant foxtail; [8]): 0
- Ducksalad plant response rating (duck salad; [9]): 0
- Ducksalad plant response rating (duck salad; [10]): 0
- Ducksalad plant response rating (duck salad; [11]): 0
- Ducksalad plant response rating (duck salad; [12]): 0
- Ducksalad plant response rating (duck salad; [13]): 0
- Ducksalad plant response rating (duck salad; [14]): 0
- Soybean plant response rating (soybean; [1]): 0
- Soybean plant response rating (soybean; [2]): 0
- Plant response rating, Soybean (soybean; [3]): 0
- Soybean plant response rating (soybean; [5]): 3
- Soybean plant response rating (soybean; [6]): 0
- Plant response rating, Soybean (soybean; [7]): 5
- Soybean plant response rating (soybean; [8]): 5
- Barnyardgrass plant response rating (bamyardgrass; [9]): 0
- Barnyardgrass plant response rating (bamyardgrass; [10]): 0
- Barnyardgrass plant response rating (bamyardgrass; [11]): 0
- Barnyardgrass plant response rating (bamyardgrass; [12]): 0
- Barnyardgrass plant response rating (bamyardgrass; [13]): 0
- Barnyardgrass plant response rating (bamyardgrass; Rate 2000 g/ha, Pre-emergence (as headed), scale 0 to 10, 0 no effect, 10 complete control): 0
- Redroot pigweed plant response rating (pigweed; [1]): 0
- Redroot pigweed plant response rating (pigweed; [2]): 0
- Plant response rating, Redroot pigweed (pigweed; [3]): 0
- Redroot pigweed plant response rating (pigweed; [5]): 0
- Redroot pigweed plant response rating (pigweed; [6]): 0
- Plant response rating, Redroot pigweed (pigweed; [7]): 1
- Redroot pigweed plant response rating (pigweed; [8]): 1
- Wheat plant response rating (wheat; [1]): 0
- Wheat plant response rating (wheat; [2]): 0
- Plant response rating, Wheat (wheat; [3]): 0
- Wheat plant response rating (wheat; [5]): 0
- Wheat plant response rating (wheat; [6]): 0
- Plant response rating, Wheat (wheat; [7]): 0
- Wheat plant response rating (wheat; [8]): 0
- Velvetleaf plant response rating (velvetleaf; [1]): 0
- Velvetleaf plant response rating (velvetleaf; [2]): 0
- Plant response rating, Velvetleaf (velvetleaf; [3]): 0
- Velvetleaf plant response rating (velvetleaf; [5]): 0
- Velvetleaf plant response rating (velvetleaf; [6]): 0
- Plant response rating, Velvetleaf (velvetleaf; [7]): 0
- Velvetleaf plant response rating (velvetleaf; [8]): 0
- Blackgrass plant response rating (blackgrass; [1]): 0
- Blackgrass plant response rating (blackgrass; [2]): 0
- Plant response rating, Blackgrass (blackgrass; [3]): 0
- Blackgrass plant response rating (blackgrass; [4]): 0
- Blackgrass plant response rating (blackgrass; [5]): 0
- Blackgrass plant response rating (blackgrass; [6]): 0
- Plant response rating, Blackgrass (blackgrass; [7]): 0
- Blackgrass plant response rating (blackgrass; [8]): 0
- S. Flatsedge plant response rating (smallflower flatsedge; [9]): 0
- S. Flatsedge plant response rating (smallflower flatsedge; [10]): 0
- S. Flatsedge plant response rating (smallflower flatsedge; [11]): 0
- S. Flatsedge plant response rating (smallflower flatsedge; [12]): 0
- S. Flatsedge plant response rating (smallflower flatsedge; [13]): 0
- S. Flatsedge plant response rating (smallflower flatsedge; [14]): 0
- Bedstraw plant response rating (bedstraw; [1]): 0
- Bedstraw plant response rating (bedstraw; [2]): 0
- Plant response rating, Bedstraw (bedstraw; [3]): 0
- Bedstraw plant response rating (bedstraw; [4]): 0
- Bedstraw plant response rating (bedstraw; [5]): 0
- Bedstraw plant response rating (bedstraw; [6]): 0
- Plant response rating, Bedstraw (bedstraw; [7]): 0
- Bedstraw plant response rating (bedstraw; [8]): 0
- Morningglory plant response rating (morningglory; [1]): 0
- Morningglory plant response rating (morningglory; [2]): 0
- Plant response rating, Morningglory (morningglory; [3]): 0
- Morningglory plant response rating (morningglory; [5]): 0
- Morningglory plant response rating (morningglory; [6]): 0
- Plant response rating, Morningglory (morningglory; [7]): 0
- Morningglory plant response rating (morningglory; [8]): 0
- Cocklebur plant response rating (cocklebur; [1]): 0
- Cocklebur plant response rating (cocklebur; [2]): 0
- Plant response rating, Cocklebur (cocklebur; [3]): 0
- Cocklebur plant response rating (cocklebur; [4]): 0
- Cocklebur plant response rating (cocklebur; [5]): 0
- Cocklebur plant response rating (cocklebur; [6]): 0
- Plant response rating, Cocklebur (cocklebur; [7]): 0
- Cocklebur plant response rating (cocklebur; [8]): 0
